Source: patent US8361996B2, “Imidazolyl substituted steroidal and indan-1-one derivatives” (Council of Scientific and Industrial Research, priority 2005, dated 2013)
Like-named read-outs stand apart in the source and are kept apart here.

Columns and labels:
aromatase (CYP19) = biological target: T1, aromatase (CYP19) (Homo sapiens, UniProt P11511); experiment: Inhibition of aromatase, human placental microsomes, 3H2O release; assay type: biochemical
T1 construct: The enzyme was obtained from the microsomal fraction of freshly delivered human term placental tissue; from tissue; host or cells: human term placenta, microsomal fraction
T1 sequence (P11511 1-503): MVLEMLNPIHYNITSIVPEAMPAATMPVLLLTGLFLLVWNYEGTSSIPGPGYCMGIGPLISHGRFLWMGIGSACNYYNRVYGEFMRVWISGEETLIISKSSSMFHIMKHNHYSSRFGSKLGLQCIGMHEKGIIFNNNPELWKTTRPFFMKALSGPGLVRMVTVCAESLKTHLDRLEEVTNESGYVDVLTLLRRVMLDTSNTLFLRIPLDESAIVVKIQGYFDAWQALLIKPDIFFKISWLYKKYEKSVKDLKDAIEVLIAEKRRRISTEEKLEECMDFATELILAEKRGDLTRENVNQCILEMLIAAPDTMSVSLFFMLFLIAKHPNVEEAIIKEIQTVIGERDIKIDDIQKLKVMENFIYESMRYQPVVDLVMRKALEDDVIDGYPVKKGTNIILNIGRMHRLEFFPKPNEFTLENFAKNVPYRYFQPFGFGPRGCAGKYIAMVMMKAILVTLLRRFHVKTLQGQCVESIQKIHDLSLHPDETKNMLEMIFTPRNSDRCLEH

[1] = Substrate: 1β 3H-androstenedione/androstenedione 500 nm
[2] = human placental microsomes and [1β,2β-3H] testosterone

Row | melting point [°C] | SMILES | Inhibition on CYP19a RP: Relative potency; relative to aminoglutethimide (=1) (aromatase (CYP19); [1]) | aromatase inhibitory activity (in words) (aromatase (CYP19); [2]) | other results
1 | 199 to 201 | COc1cc(C=C2C[C@H]3[C@@H]4CC=C5C[C@@H](O)CC[C@]5(C)[C@H]4CC[C@]3(C)C2=O)ccc1OCCCn1ccnc1 |  |  | 
2 | 109 to 111 | COc1cc(C=C2C[C@H]3[C@@H]4CC=C5C[C@@H](OC(C)=O)CC[C@]5(C)[C@H]4CC[C@]3(C)C2=O)ccc1OCCCn1ccnc1 |  |  | 
3 | 163 to 168 | COc1cc(C=C2C[C@H]3[C@@H]4CC=C5C[C@@H](OC(C)=O)CC[C@]5(C)[C@H]4CC[C@]3(C)[C@H]2OC(C)=O)ccc1OCCCn1ccnc1 |  |  | 
4 | 211 to 212 | C[C@]12CC[C@H](O)CC1=CC[C@@H]1[C@@H]2CC[C@]2(C)C(=O)C(=Cc3cccc(OCCCn4ccnc4)c3)C[C@@H]12 |  |  | 
5 | 97 to 99 | CC(=O)O[C@H]1CC[C@@]2(C)C(=CC[C@H]3[C@@H]4CC(=Cc5cccc(OCCCn6ccnc6)c5)[C@H](OC(C)=O)[C@@]4(C)CC[C@@H]32)C1 |  |  | 
6 | 285 to 287 | C[C@]12CC[C@H]3[C@@H](CC=C4C[C@@H](O)CC[C@@]43C)[C@@H]1C[C@H](n1ccnc1)[C@@H]2O |  |  | 
7 | 197 to 199 | CC(=O)O[C@H]1CC[C@@]2(C)C(=CC[C@H]3[C@@H]4C[C@H](n5ccnc5)[C@H](OC(C)=O)[C@@]4(C)CC[C@@H]32)C1 |  |  | 
8 | 48 to 50 | O=C1/C(=C/c2cccc(OCCCn3ccnc3)c2)Cc2ccccc21 [Compound 2, 2-[3-(3-Imidazol-1-yl-propoxy)-benzylidene]-indan-1-one] | 42.5 | good aromatase inhibitory activity | 
9 | 176 to 180 | COc1ccc(/C=C2\Cc3ccccc3C2=O)cc1OCCCn1ccnc1 [Compound 6, 2-[3-(3-Imidazol-1-ylpropoxy)-4-methoxybenzylidene)indan-1-one] | 22.5 | good aromatase inhibitory activity | 
10 | 123 to 127 | COc1cc(/C=C2\Cc3ccccc3C2=O)ccc1OCCCn1ccnc1 [Compound 8, 2-[4-(3-Imidazol-1-ylpropoxy)-3-methoxybenzylidene)indan-1-one] | 54.1 | good aromatase inhibitory activity | IC50 (aromatase (CYP19); human placental microsomes and [1β,2β-3H] testosterone, read-out: IC50 for the aromatase inhibitory activity): 0.55 µM

More lines, now with the values behind:

Row | SMILES | melting point [°C] | Inhibition on CYP19a RP: Relative potency; relative to aminoglutethimide (=1) (aromatase (CYP19); [1]) | aromatase inhibitory activity (in words) (aromatase (CYP19); [2]) | other results
11 | O=C1/C(=C/c2ccccc2OCCCn2ccnc2)Cc2ccccc21 [Compound 4, 2-[2-(3-Imidazol-1-yl-propoxy)-benzylidene]-indan-1-one] | 76 to 78 | 26.6 | good aromatase inhibitory activity | 
12 | O=C1C(=Cc2cccc(OCCn3ccnc3)c2)Cc2ccccc21 [Compound 10, 2-[3-(2-Imidazol-1-ylethoxy)-benzylidene]indan-1-one] | 218 to 220 |  |  | 
13 | COc1cc(/C=C2\C[C@H]3[C@@H]4CC=C5C[C@@H](O)CC[C@]5(C)[C@H]4CC[C@]3(C)[C@H]2O)ccc1OCCCn1ccnc1 [Compound 14, 16-[4-{3-(Imidazol-1-yl)propoxy}-3-methoxybenzylidene]-5-androstene-3β,17β-diol] |  | 12.4 | significant aromatase inhibitory activity | 
14 | C[C@]12CC[C@H]3[C@@H](CC=C4C[C@@H](O)CC[C@@]43C)[C@@H]1C/C(=C\c1cccc(OCCCn3ccnc3)c1)[C@@H]2O [Compound 20, 16-[3-{3-(imidazol-1-yl)propoxy}benzylidene]-5-androstene-3β,17β-diol] | 133 to 135 |  | significant aromatase inhibitory activity | Inhibition on CYP19a RP: Relative potency; relative to aminoglutethimide (=1) (aromatase (CYP19)): IC50: 9.1 μM RP: 3.3; IC50 (aromatase (CYP19); Substrate: 1β 3H-androstenedione/androstenedione 500 nm, read-out: Inhibition on CYP19a IC50): 9.1 µM
15 | C[C@]12CCC(=O)C=C1CCC1C2CC[C@]2(C)C(=O)/C(=C/c3cccc(OCCCn4ccnc4)c3)CC12 (stereo partly drawn) [Compound 22, 16-[3-{3-(imidazol-1-yl)propoxy}benzylidene]-4-androstene-3,17-dione] |  |  | significant aromatase inhibitory activity | 
16 | CC(=O)O[C@H]1CC[C@@]2(C)C(=C/C(=N\OCCCn3ccnc3)[C@H]3[C@@H]4CC[C@H](OC(C)=O)[C@@]4(C)CC[C@@H]32)C1 [Compound 24, 7-[O-{3-(imidazol-1-yl)propyl}oximino]-5-androstene-3β,17β-diol diacetate] | 180 to 182 | IC50: 3.1 μM RP: 9.6 | significant aromatase inhibitory activity | IC50 (aromatase (CYP19)): 3.1 µM
17 | C[C@]12CC[C@H]3[C@@H](/C(=N\OCCCn4ccnc4)C=C4C[C@@H](O)CC[C@@]43C)[C@@H]1CC[C@@H]2O [Compound 25, 7-[O-{3-(Imidazol-1-yl)propyl}oximino]-5-androstene-3β,17β-diol] | 205 to 206 | IC50: 12 μM RP: 2.5 | significant aromatase inhibitory activity | IC50 (aromatase (CYP19)): 12 µM
18 | C[C@]12CC[C@H](O)CC1=CC[C@@H]1[C@@H]2CC[C@]2(C)C(=O)[C@@H](n3ccnc3)C[C@@H]12 [Compound 27, 16β-(Imidazol-1-yl)-17-oxo-5-androsten-3β-ol] | 249 to 251 | IC50: 3.3 Mm RP: 9.0 | significant aromatase inhibitory activity | 
